This note sets out measurements from PMC9870775, “Potent Dual Polymerase/Exonuclease Inhibitory Activities of Antioxidant Aminothiadiazoles Against the COVID-19 Omicron Virus: A Promising In Silico/In Vitro Repositioning Research Study” (Molecular Biotechnology, 2023).

Bounds are passed on as bounds.

A short description of this data set: in vitro. As to conditions: African green monkey.
`Nc1nnc(CC(O)(Cc2nnc(N)s2)c2nnc(N)s2)s1` [CoViTris2022, 1,2,3-tris(5-amino-1,3,4-thiadiazol-2-yl)propan-2-ol] returned a CC50 of more than 100 µM. The value for `Nc1nnc([C@H](O)[C@@H](O)c2nnc(N)s2)s1` [Taroxaz-26, (1R,2R)-1,2-bis(5-amino-1,3,4-thiadiazol-2-yl)ethane-1,2-diol] was more than 100 µM. `Nc1nnc(-c2cnc3cc(Cl)ccc3c2O)s1` [ChloViD2022, 3-(5-amino-1,3,4-thiadiazol-2-yl)-7-chloroquinolin-4-ol] showed a CC50 of more than 100 µM. Next, `CC(C)C(=O)OC[C@H]1O[C@@H](n2ccc(NO)nc2=O)[C@H](O)[C@@H]1O` [Molnupiravir, molnupiravir, reference compound]: more than 100 µM.
